One assay deals with COVID-19 patients. The settings on record: treatment of COVID-19; cited from earlier work.
For assay [1], the system named is platelets of healthy donors or severe COVID-19 patients. The experiment in a line: Analysis of Ca2+ transients (Indo-1 AM, FACS). The format is cell-based, human. The settings on record: 10 µM ivacaftor pretreatment; ADP, TRAP6 or PAF; healthy donors and severe COVID-19; except TRAP6 stimulated healthy platelets. The procedure: Analysis of Ca2+ transients: Platelet rich plasma (PRP) was stained with anti-CD42b, and loaded with Indo-1 AM (Invitrogen, Waltham, MA, USA)) for 30 min at 37° C. together in the presence of either vehicle (DMSO, 10 µM ivacaftor or 5 µM forskolin) under mild agitation. Stained PRP was diluted in Tyrode's Buffer (134 mM NaCl, 12 mM NaHCO3, 2.90 mM KCl, 0.34 mM Na2HPO4, 3 mM MgCl2, 2 mM CaCI2, 20 mM HEPES, 5 mM Glucose, pH 7.4.) complemented with heparin and […] before the fluorescence ratio of Ca2+-bound Indo-1 (405 nm) to Ca2+-unbound Indo-1 (530 nm) of CD42b+ platelets was monitored on a FACSymphony™ A5 (BD Biosciences, Franklin Lakes, NJ, USA) equipped with a ultraviolet (355 nm), violet (405 nm), blue (488 nm), yellow (561 nm), and red (637 nm) solid-state laser. After basal Ca2+ concentrations were monitored for 30 s, platelets were stimulated with either 5 μM PAF (Tocris Bioscience (Bristol, England, GB)), 50 μM ADP (Sigma-Aldrich, St. Louis, MO, USA) or 50 μM TRAP-6 (purchased from Cayman Chemicals (Ann Arbor, MI, USA)) before changes in intracellular Ca2+ concentration ([Ca2+] i) were monitored for additional 2 min. Results are expressed in arbitrary units as areaunder the curve (AUC).

For assay [2], the system named is platelets in whole blood of COVID-19 patients and healthy donors. The experiment in a line: Vascular Injury Flow Assay (platelet adhesion on collagen IV). The assay is classed as cell-based, human. The procedure: Vascular Injury Flow Assay: Citrated blood was stained with anti-CD42b ((GPlb) Allophycocyanin (APC, clone REA 185, Miltenyi Biotec, Bergisch Gladbach, Germany)) and treated with either vehicle (DMSO), 10 μM ivacaftor or 5 µM forskolin for 15 min at 37° C. before the microfluidic flow assay was performed as previously described2. In brief, pretreated whole blood was diluted 1:4 with modified Tyrode's Buffer (134 mM NaCl, 12 mM NaHCO3, 2.90 mM KCl, 0.34 mM Na2HPO4, 3 mM MgCl2, 2.1 mM CaCl2), 20 mM HEPES, 5 mM Glucose, 1 g/l BSA, adjusted to a pH of 7.4.) immediately before perfusion with a flow rate of 20 mL/h for 5 min through collagen IV coated microchannel flow chambers (6 Channel μ-Slide VI 0.4, Ibidi, Martinsried, Germany). After perfusion, cells were fixed with 4% PFA for 30 min and washed thoroughly with PBS. Five randomly selected regions of interest (ROI) for each experimental condition were imaged with an Invitrogen™ EVOS™ fluorescent microscope and quantification of the total CD42b+ covered area was carried out with ImageJ (Version […] by the US National Institutes of Health and the LOCI, University of Wisconsin).

For assay [3], the system named is platelets isolated from blood of healthy donors. The experiment in a line: Flow cytometry of surface expression of activation markers CD62p and CD63 on platelets. The format is cell-based, human. The settings on record: platelets pre-treated 24 h with 10 µM ivacaftor or 5 µM forskolin prior to 50 µM ADP, 50 µM TRAP6 or 5 µM PAF. The method, then:
Flow Cytometry: Blood samples were collected and stained as previously described3. In brief, blood was directly stained in dilution buffer (NaCl 137 mM, KCl 2.7 mM, MgCl2 1 mM, 4-(2-hydroxyethyl)-1-piperazineethanesulfonic acid (HEPES) 20 mM, glucose 5.6 mM, bovine serum albumin 1 g/l, pH 7.4.) containing mouse anti-human anti-CD42b (GPlb) Phycoerythrin (PE, clone HIP1), anti-CD62p (P-selectin) Phycoerythrin-Cyanine 7 (PE/Cy7, clone AK4), anti-CD63 (GP53) and Brilliant Violet 421 (clone H5C6), all from BioLegend (San Diego, CA, USA), before cells were fixed with 2 mL of 0.2% PFA in PBS. In order to analyze isolated platelets, total citrate blood was centrifuged at 150 g for 15 min to separate platelet rich plasma (PRP) from blood cells. PRP was collected and centrifuged again at 1000 g for 15 min. Platelets were subsequently resuspended in 10% CPDA buffer in PBS (Sigma-Aldrich (St. Louis, MO, USA)) and incubated for 24 h in the presence of either vehicle (DMSO, Sigma-Aldrich (St. Louis, MO, USA)), 10 µM ivacaftor (Cayman Chemicals, Ann Arbor, MI, USA)) or 5 µM forskolin (Fisher Scientific (Pittsburgh, PA, USA)) before staining was applied as described above. […] All measurements were analyzed with FlowJo (version 8, Tree Star, Inc., Ashland, OR, USA).
A general note: In flow cytometry, cells or beads pass a laser one at a time.

The test system of assay [4] is platelets from COVID-19 patients and healthy donors (hirudin whole blood). The experiment in a line: Multiple Electrode Aggregometry (Multiplate analyzer). The settings on record: 10 µM ivacaftor 15 min, ADP, TRAP6 or PAF, significance only for individual agonist-platelet combinations. The assay is classed as cell-based, human. The method, then: Multiple Electrode Aggregometry: Whole blood impedance measurement using Multiple Electrode Aggregometry (MEA) was performed on the Multiplate® analyzer by Roche (Basel, Switzerland)). Hirudin whole blood samples were treated with either vehicle (DMSO), 10 µM ivacaftor or 5 μM forskolin for 15 min at 37° C.

Entries after “also recorded” stand apart in the source; their conditions may differ.

With `COc1ccc(-n2nc(C(N)=O)c3c2C(=O)N(c2ccc(N4CCCCC4=O)cc2)CC3)cc1` [apixaban], the “reduction in thromboembolic events” value with COVID-19 patients was “failed to yield a significant reduction”.
For the molecule `CC(=O)Oc1ccccc1C(=O)O` [aspirin], the “reduction in thromboembolic events” value with COVID-19 patients is “failed to yield a significant reduction; also recorded: failed to show a significant reduction”.
For the molecule `CC(C)(C)c1cc(C(C)(C)C)c(NC(=O)c2c[nH]c3ccccc3c2=O)cc1O` [ivacaftor, N-(5-hydroxy-15 2,4-ditert-butyl-phenyl)-4-oxo-1 H-quinoline-3-carboxamide], the “agonist-induced [Ca2+]i increase (AUC)” value in assay [1] is “attenuates; also recorded: significant reduction; also recorded: significantly attenuated”. The “agonist-induced platelet adhesion (CD42b+ total area)” value in assay [2] (10 μM ivacaftor 15 min, ADP, TRAP-6 or PAF, significance for most agonist-platelet combinations) is “reduces; also recorded: general trend to reduce; also recorded: attenuates”. The “adhesion of both unstimulated and stimulated platelets” value in assay [2] (whole blood of severe COVID-19 patients) was “reduced”. Moreover, the “agonist-induced upregulation of CD62p and CD63 (platelet activation)” value in assay [3] is on record as “prevented; also recorded: attenuates; also recorded: normalized”. The “agonist-induced aggregation of platelets (AUC)” value is listed as “reduces; also recorded: general trend to reduce; also recorded: attenuates” in assay [4] and “significantly attenuates” in assay [4] (listed as Ivacaftor).

These data come from patent US20250177371A1, “CFTR MODULATORS FOR THE TREATMENT OF VASCULAR DISEASE” (priority 2022, published 2025).
